Starred links: 1 amine or outer side, 2 acyl side, 3 side chain; linkers in the order of their positions; H or OH if unused. Positions of bridges follow the written chain, without caps; N, C: chain ends. Non-standard residues stand in square brackets, D forms with d. Residues, ends and D or L forms follow the SMILES beside them. ξ: configuration not given here. *: point of attachment. ξAbu(3ξ-NHCOCH2NH2) = CC(NC(=O)CN)C(N)C(=O)O; ξAbu(βξ-NH2) = CC(N[*:3])C(N[*:1])C(=O)[*:2]; X8 = O=C(/C=C/c1ccc(N[*:1])cc1)[*:2]; ξAsp(βξ-Me) = CC(C(=O)O)C(N)C(=O)O; X1 = O=C(Cc1ccc(N[*:1])cc1)[*:2]; Myristoyl = CCCCCCCCCCCCCC(=O)*; Lauroyl = CCCCCCCCCCCC(=O)*; 4Abz = Nc1ccc(C(=O)O)cc1; Pip = O=C(O)[CH]1CCCCN1
Test system: Staphylococcus aureus (MSSA)
Settings: 24 h
Method: (“Approved Standard M7-A3”).
The antimicrobial lipopeptide derivatives described herein were tested for antimicrobial activity against Gram-positive bacteria as follows. The minimum inhibitory concentrations (MIC) of the antimicrobial lipopeptide derivatives of the invention were determined using NCCLS guidelines M7-A6 (2003) with a slight modification in that doubling serial dilutions were used to dilute the test compounds. The broth phase microdilution method was used. Isolated colonies of Staphylococcus aureus (MSSA) from an 18-24 hour blood agar plate cultures were used to inoculate cation adjusted Mueller-Hinton broth (CAMHB) supplemented with 0.625 mM calcium. […] A negative control containing media alone and a positive growth control containing bacteria with media alone were also included. MICs were determined after incubating the plates at about 37° C. for 24 hours. […] In Tables 1 to 16, R is the core cyclic peptide of amphomycin or aspartocin, which can be in the form of a β-isomer, an anhydro, a dianhydro, or any combination thereof. […] Furthermore, a person of skill in the art will appreciate that all the pounds, or groups of compounds, derived from the various combinations of and substituents shown in Tables 1 to 16, are disclosed by the present the same extent as if each compound or group of compounds was set forth individually.

| SMILES | MIC [µg/mL] |
| --- | --- |
| CCCCCCCCCCCCCCC(=O)NC(CC(=O)O)C(=O)NC1C(=O)N2CCCCC2C(=O)NC(C(C)C(=O)O)C(=O)NC(CC(=O)O)C(=O)NCC(=O)NC(CC(=O)O)C(=O)NCC(=O)NC(C(C)NC(=O)CNC(=O)CCCCC)C(=O)NC(C(C)C)C(=O)N2CCCC2C(=O)NC1C (stereo not drawn) [Compound 81, C15-Amphomycin-9-Gly-C6] | 32 |
| CCCCCCCCCCCCCCC(=O)NC(CC(=O)O)C(=O)NC1C(=O)N2CCCCC2C(=O)NC(C(C)C(=O)O)C(=O)NC(CC(=O)O)C(=O)NCC(=O)NC(CC(=O)O)C(=O)NCC(=O)NC(C(C)NC(=O)[C@H](C)N)C(=O)NC(C(C)C)C(=O)N2CCCC2C(=O)NC1C (stereo partly drawn) [Compound 82, C15-Amphomycin-9-Ala] | 2 |
| CCCCCCCCCCCCCCCCNC(=O)NC(CC(=O)O)C(=O)NC1C(=O)N2CCCCC2C(=O)NC(C(C)C(=O)O)C(=O)NC(CC(=O)O)C(=O)NCC(=O)NC(CC(=O)O)C(=O)NCC(=O)NC(C(C)NC(=O)CN)C(=O)NC(C(C)C)C(=O)N2CCCC2C(=O)NC1C (stereo not drawn) [Compound 83, CH3—(CH2)15—NH—C(═O)-Amphomycin-9-Gly] | 2 |
| CCCCCCCCCCCCCCCCS(=O)(=O)NC(CC(=O)O)C(=O)NC1C(=O)N2CCCCC2C(=O)NC(C(C)C(=O)O)C(=O)NC(CC(=O)O)C(=O)NCC(=O)NC(CC(=O)O)C(=O)NCC(=O)NC(C(C)NC(=O)CN)C(=O)NC(C(C)C)C(=O)N2CCCC2C(=O)NC1C (stereo not drawn) [Compound 84, CH3—(CH2)15—SO2-Amphomycin-9-Gly] | 2 to 4 |
| CCCCCCCCCCCC(=O)Nc1ccc(CC(=O)NC(CC(=O)O)C(=O)NC2C(=O)N3CCCCC3C(=O)NC(C(C)C(=O)O)C(=O)NC(CC(=O)O)C(=O)NCC(=O)NC(CC(=O)O)C(=O)NCC(=O)NC(C(C)NC(=O)CN)C(=O)NC(C(C)C)C(=O)N3CCCC3C(=O)NC2C)cc1 (stereo not drawn) [Compound 86, C12-(p-Apa)-Amphomycin-9-Gly] (Lauroyl-[X1]D[ξAbu(βξ-NH2)][Pip][ξAsp(βξ-Me)]DGDG[ξAbu(3ξ-NHCOCH2NH2)]VP; lactam 3-C; configuration not given here) | 0.25 |
| CCCCCCCCCCCC(=O)Nc1ccc(C(=O)NC(CC(=O)O)C(=O)NC2C(=O)N3CCCCC3C(=O)NC(C(C)C(=O)O)C(=O)NC(CC(=O)O)C(=O)NCC(=O)NC(CC(=O)O)C(=O)NCC(=O)NC(C(C)NC(=O)CN)C(=O)NC(C(C)C)C(=O)N3CCCC3C(=O)NC2C)cc1 (stereo not drawn) [Compound 87, C12-PABA-Amphomycin-9-Gly] | 0.25 to 0.5 |
| CCCCCCCCCCCC(=O)Nc1ccc(/C=C/C(=O)NC(CC(=O)O)C(=O)NC2C(=O)N3CCCCC3C(=O)NC(C(C)C(=O)O)C(=O)NC(CC(=O)O)C(=O)NCC(=O)NC(CC(=O)O)C(=O)NCC(=O)NC(C(C)NC(=O)CN)C(=O)NC(C(C)C)C(=O)N3CCCC3C(=O)NC2C)cc1 (stereo not drawn) [Compound 89, C12-(p-Trans-Cinnamyl)-Amphomycin-9-Gly] (Lauroyl-[X8]D[ξAbu(βξ-NH2)][Pip][ξAsp(βξ-Me)]DGDG[ξAbu(3ξ-NHCOCH2NH2)]VP; lactam 3-C; configuration not given here) | 0.5 to 1 |
| CCCCCCCCCCCCCC(=O)Nc1ccc(C(=O)NCC(=O)NC(CC(=O)O)C(=O)NC2C(=O)N3CCCCC3C(=O)NC(C(C)C(=O)O)C(=O)NC(CC(=O)O)C(=O)NCC(=O)NC(CC(=O)O)C(=O)NCC(=O)NC(C(C)NC(=O)CN)C(=O)NC(C(C)C)C(=O)N3CCCC3C(=O)NC2C)cc1 (stereo not drawn) [Compound 91, C14-PABA-Gly-Amphomycin-9-Gly] ({Myristoyl-4Abz}-GD[ξAbu(βξ-NH2)][Pip][ξAsp(βξ-Me)]DGDG[ξAbu(3ξ-NHCOCH2NH2)]VP; lactam 3-C; configuration not given here) | 2 |
| CCCCCCCCCCCCCCC(=O)NC(CC(=O)O)C(=O)NC1C(=O)N2CCCCC2C(=O)NC(C(C)C(=O)O)C(=O)NC(CC(=O)O)C(=O)NCC(=O)NC(CC(=O)O)C(=O)NCC(=O)NC(C(C)NC(=O)CCCCCNC(=O)CN)C(=O)NC(C(C)C)C(=O)N2CCCC2C(=O)NC1C (stereo not drawn) [Compound 93, C15-Amphomycin-9-Ahx-Gly] | 4 |
| CCCCCCCCCCCCCCC(=O)NC(CC(=O)O)C(=O)NC1C(=O)N2CCCCC2C(=O)NC(C(C)C(=O)O)C(=O)NC(CC(=O)O)C(=O)NCC(=O)NC(CC(=O)O)C(=O)NCC(=O)NC(C(C)NC(=O)CCCNC(=O)CCCN)C(=O)NC(C(C)C)C(=O)N2CCCC2C(=O)NC1C (stereo not drawn) [Compound 94, C15-Amphomycin-9-GABA-GABA] | 2 |
| CCCCCCCCCCCCCCC(=O)NC(CC(=O)O)C(=O)NC1C(=O)N2CCCCC2C(=O)NC(C(C)C(=O)O)C(=O)NC(CC(=O)O)C(=O)NCC(=O)NC(CC(=O)O)C(=O)NCC(=O)NC(C(C)NC(=O)[C@@H]2CCCCN2)C(=O)NC(C(C)C)C(=O)N2CCCC2C(=O)NC1C (stereo partly drawn) [Compound 95, C15-Amphomycin-9-hPro] | 2 |
| CCCCCCCCCCCCCCC(=O)NC(CC(=O)O)C(=O)NC1C(=O)N2CCCCC2C(=O)NC(C(C)C(=O)O)C(=O)NC(CC(=O)O)C(=O)NCC(=O)NC(CC(=O)O)C(=O)NCC(=O)NC(C(C)NC(=O)[C@H]2CCCCN2)C(=O)NC(C(C)C)C(=O)N2CCCC2C(=O)NC1C (stereo partly drawn) [Compound 96, C15-Amphomycin-9-(D-Pip)] | 1 |

Same assay, conditions: S. aureus (MSSA), CAMHB supplemented with 0.625 mM calcium, 24 hours at about 37° C.; a range = compound tested multiple times

| SMILES | MIC |
| --- | --- |
| CCCCCCCCCCCC(=O)NC(CC(=O)O)C(=O)NC1C(=O)N2CCCCC2C(=O)NC(C(C)C(=O)O)C(=O)NC(CC(=O)O)C(=O)NCC(=O)NC(CC(=O)O)C(=O)NCC(=O)NC(C(C)NC(=O)CNC)C(=O)NC(C(C)C)C(=O)N2CCCC2C(=O)NC1C (stereo not drawn) [Compound 74, C12-Amphomycin-9-Sar] | 74/4 μg/mL |
| CCCCCCCCCCCCCCCC(=O)NC(CC(=O)O)C(=O)NC1C(=O)N2CCCCC2C(=O)NC(C(C)C(=O)O)C(=O)NC(CC(=O)O)C(=O)NCC(=O)NC(CC(=O)O)C(=O)NCC(=O)NC(C(C)NC(=O)CNC)C(=O)NC(C(C)C)C(=O)N2CCCC2C(=O)NC1C (stereo not drawn) [Compound 75, C16-Amphomycin-9-Sar] | 75/1 μg/mL |
| CCCCCCCCCC(=O)NC(CC(=O)O)C(=O)NC1C(=O)N2CCCCC2C(=O)NC(C(C)C(=O)O)C(=O)NC(CC(=O)O)C(=O)NCC(=O)NC(CC(=O)O)C(=O)NCC(=O)NC(C(C)NC(=O)CCN)C(=O)NC(C(C)C)C(=O)N2CCCC2C(=O)NC1C (stereo not drawn) [Compound 76, C10-Amphomycin-9-(β-Ala)] | 76/16 μg/mL |
| CCCCCCCCCC(=O)NC(CC(=O)O)C(=O)NC1C(=O)N2CCCCC2C(=O)NC(C(C)C(=O)O)C(=O)NC(CC(=O)O)C(=O)NCC(=O)NC(CC(=O)O)C(=O)NCC(=O)NC(C(C)NC(=O)CNC)C(=O)NC(C(C)C)C(=O)N2CCCC2C(=O)NC1C (stereo not drawn) [Compound 77, C10-Amphomycin-9-Sar] | 77/32 μg/mL |
| CCCCCCCCCCCCCCCCC(=O)NC(CC(=O)O)C(=O)NC1C(=O)N2CCCCC2C(=O)NC(C(C)C(=O)O)C(=O)NC(CC(=O)O)C(=O)NCC(=O)NC(CC(=O)O)C(=O)NCC(=O)NC(C(C)NC(=O)CNC)C(=O)NC(C(C)C)C(=O)N2CCCC2C(=O)NC1C (stereo not drawn) [Compound 78, C17-Amphomycin-9-Sar] | 78/1 μg/mL |
| CCCCCCCCCCCCCCCC(=O)NC(CC(=O)O)C(=O)NC1C(=O)N2CCCCC2C(=O)NC(C(C)C(=O)O)C(=O)NC(CC(=O)O)C(=O)NCC(=O)NC(CC(=O)O)C(=O)NCC(=O)NC(C(C)NC(=O)CCN)C(=O)NC(C(C)C)C(=O)N2CCCC2C(=O)NC1C (stereo not drawn) [Compound 79, C16-Amphomycin-9-(β-Ala)] | 79/1 μg/mL |

Reference: patent US7868135B2, “Compositions of lipopeptide antibiotic derivatives and methods of use thereof” (priority 2003, dated 2011)
